Tested on: H1993 cells
Assay: Carfilzomib dose response on cell proliferation, IC50 determination
Type: cell-based, human
Conditions: increasing dose
Procedure: Cell proliferation and apoptosis assay. Cell proliferation assays were performed using cell lines stably transfected with NucLight Red Lentivirus (Essen Bioscience) to accurately visualize and count the nucleus of a single cell. Cells were seeded on a 96-well plate and allowed to adhere for 24 hours. Test compounds were added at indicated concentrations. Caspase-3/7 Green Apoptosis Reagent (Essen Bioscience) was also added as a green fluorescent indicator of caspase-3/7-mediated apoptotic activity. To monitor cell proliferation and apoptosis over time, the plate was placed in the IncuCyte S3 Live-Cell Analysis System (Essen BioScience) and images were acquired every 2 hours. Data analysis was generated by the IncuCyte software using a red fluorescence mask to accurately count each cell nucleus and a green fluorescence mask to measure apoptosis over time.
Then a sublethal dose was used to determine the effect of these compounds on ITGB4 and PXN expression and caspase activity (FIG. 9I). […] These eleven compounds were further screened in the cisplatin-resistant cell line H2009. […] Further, carfilzomib was tested in another cisplatin-resistant cell line H1993.

Which results are given for `CC(C)C[C@H](NC(=O)[C@H](CCc1ccccc1)NC(=O)CN1CCOCC1)C(=O)N[C@@H](Cc1ccccc1)C(=O)N[C@@H](CC(C)C)C(=O)[C@@]1(C)CO1` [Carfilzomib]?
IC50 (H1993 cells): 1.77 µM; IC50 (Homo sapiens, NCI-H1993, H1993 cells): 1.7 µM
